In patent US5583123A, “Certain tetrazole derivatives” (priority 1994, dated 1996):

Biological target: T1, Endothelin converting enzyme (ECE) (Sus scrofa, UniProt A0A8W4FBH0)
T1 construct: partially purified from porcine primary aortic endothelial cells; endogenous in cells; host or cells: porcine primary aortic endothelial cells (partially purified by DE52 anion exchange)
T1 sequence (A0A8W4FBH0 1-751): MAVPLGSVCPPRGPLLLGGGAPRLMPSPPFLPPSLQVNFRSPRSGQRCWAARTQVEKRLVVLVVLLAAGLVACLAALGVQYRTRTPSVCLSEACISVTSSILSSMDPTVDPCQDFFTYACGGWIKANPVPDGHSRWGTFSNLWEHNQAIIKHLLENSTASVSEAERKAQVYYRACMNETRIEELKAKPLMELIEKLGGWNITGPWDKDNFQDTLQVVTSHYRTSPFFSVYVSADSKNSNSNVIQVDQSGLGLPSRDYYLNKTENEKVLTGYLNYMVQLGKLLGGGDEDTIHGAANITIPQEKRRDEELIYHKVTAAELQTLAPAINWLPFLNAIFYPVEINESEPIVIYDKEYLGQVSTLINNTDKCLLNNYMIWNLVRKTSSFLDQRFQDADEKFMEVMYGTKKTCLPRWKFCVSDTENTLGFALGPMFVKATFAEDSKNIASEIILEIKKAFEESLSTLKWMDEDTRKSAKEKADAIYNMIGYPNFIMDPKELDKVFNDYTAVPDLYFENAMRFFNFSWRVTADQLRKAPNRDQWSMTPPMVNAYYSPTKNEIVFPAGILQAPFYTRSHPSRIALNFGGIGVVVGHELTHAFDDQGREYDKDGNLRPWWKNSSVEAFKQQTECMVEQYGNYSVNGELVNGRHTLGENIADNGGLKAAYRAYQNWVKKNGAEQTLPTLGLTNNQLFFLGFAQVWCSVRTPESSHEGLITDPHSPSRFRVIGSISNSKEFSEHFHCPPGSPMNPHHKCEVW
Assay: in vitro assay for endothelin converting enzyme inhibition (radioimmunoassay of ET-1 formed from big ET-1)
Assay type: biochemical, porcine
Description: The ECE inhibition can be determined as described in Biochem. Mol. Biol. Int. […] In vitro testing is most appropriate for the free phosphonic acids of the invention.

In the case of O=P(O)(O)C(CCc1cccc2ccccc12)N[C@@H](Cc1ccc(-c2ccccc2)cc1)c1nnn[nH]1 (single isomer, unassigned) [1 (a)], the IC50 (ECE partially purified from porcine primary aortic endothelial cells, pH 7.4 buffer) is reported as ~370 nM and the “relative activity as ECE inhibitor (diastereomer A versus diastereomer B)” value (comparison of the two diastereomers of Example 1) is reported as “more active”.
